Consider one compound from PMC6009892, “A novel series of pyrazole-platinum(II) complexes as potential anti-cancer agents that induce cell cycle arrest and apoptosis in breast cancer cells” (Journal of Enzyme Inhibition and Medicinal Chemistry, 2018).

In general, IC50 refers to the midpoint of a concentration-inhibition curve.

Molecules are shown by their SMILES. Where two headings read alike, the source gives them in different places.

Format in all cases: cell-based, human
Assay [1] relates to MCF-7 breast cancer cells. In words: MTT cell viability assay, MCF-7. On the procedure:
(§1) MCF-7, MDA-MB-231 (both human breast cancer cell lines), and fibroblast cells were obtained from American Type Culture Collection (ATCC, Manassas, VA, USA). DMEM and FBS used in a cell culture were from Gibco (USA). Glutamine, penicillin, and streptomycin were obtained from Quality Biologicals Inc. (USA). DMEM media was blended with 50 units/ml of penicillin, 50 μg/ml of streptomycin, 10% of FBS. All cell lines were cultured in 5% CO2 and fully humidified at 37 °C. Cells were cultured in Costar flasks and sub-confluent cells were detached with 0.05% trypsin and 0.02% ethylenediaminetetraacetic acid in calcium-free phosphate-buffered saline (PBS), counted in hemocytometers, and plated at 5 × 10^5 cells/well of six-well plates (Thermo Scientific, New York, NY, USA) in 2 ml of growth medium (DMEM without phenol red with 10% CPSR1). Cells reached about 80% of confluency at day 2, and in most cases such cells were used for the assays.
(§2) The viability of cultured cells was decided through assaying the reduction of MTT to formazan. In brief, MCF-7, MDA-MB-231, and fibroblast cells line were seeded at an initial density of 1 × 10^5 cells per well. Then, the cells were incubated at 37 °C for 24 h. Subsequently, cultured cells were treated with a medium containing concentrations (5, 10, 20, 30, 40, and 50 μM) of PtPz1–PtPz6 for 24 h and 48 h. After the incubation period, MTT was added into all wells in the final concentration of 0.5 mg/ml. After that, the cells were incubated at 37 °C for 4 h. Then, by removing the medium, 200 μl of DMSO was added to all wells. As a result, insoluble formazan was dissolved in DMSO (0.5%). At 570 nm (630 nm as a reference), the absorbance was measured in an Evolution 201 reader (Thermo Scientific, Waltham, MA).

Assay [2] deals with MDA-MB-231 breast cancer cells. In words: MTT cell viability assay, MDA-MB-231. On the procedure:
as §1, §2
In general terms: Formazan colour is commonly taken as a measure of viable cells.

The test system of assay [3] is MCF-7 breast cancer cells. Put plainly: DNA fragmentation TUNEL assay, MCF-7. To be noted: MCF-7, 20 μM, 24 h; control 4.0%. On the procedure: (§3) DNA fragmentation associated with apoptosis was examined by the terminal deoxynucleotidyltransferase (TdT)- mediated dUTP nick end labeling (TUNEL) method using a commercial assay kit (APO-Direct Kit; BD Pharmingen, San Diego, CA). After treatment, the cells were fixed with 1% paraformaldehyde in PBS (4°C, 30 min), washed in PBS, and permeabilised with ice-cold 70% ethanol. The APO-Direct Kit TUNEL assay was performed as described by the manufacturer. Briefly, the fixed cells were washed twice using the kit wash buffer, and after centrifugation the supernatant was discarded. The DNA labeling solution (containing TdT enzyme and FITC-dUTP) was added to the cell pellet, and the re-suspended mixture was incubated for 1 h at 37°C with occasional shaking. At the end of incubation time, rinse buffer was added, and after centrifugation the supernatant was discarded. We repeated the cell rinsing with rinse buffer, and then suspended the cell pellet in PI/RNase staining buffer. Cells were incubated at room temperature for 30 min and immediately analysed in a BD FACSCanto II flow cytometer. In total, 10,000 events were collected per test sample. The results were analysed with FACSDiva software (both from BD Biosciences Systems, San Jose, CA). The percentage of cells with distinctive apoptotic DNA strand breaks and distinguished by green fluorescent emission was calculated.

For assay [4], the system named is MDA-MB-231 breast cancer cells. In words: DNA fragmentation TUNEL assay, MDA-MB-231. To be noted: MDA-MB-231, 20 μM, 24 h. On the procedure: as §3
Assay [5] has as its system caspase-3 in MDA-MB-231 breast cancer cells. Put plainly: FLICA caspase-3 activity, flow cytometry, MDA-MB-231. To be noted: MDA-MB-231, 20 μM, 24 h. How it is done:
(§4) Caspase-3 activity was measured using the FLICA Caspase 3 Assay Kit (ImmunoChemistry Technologies, Bloomington, MN, USA), according to the manufacturer’s instructions. Briefly, cultured MDA-MB-231 breast cancer cells (1 × 10^6) were washed with cold PBS twice and re-suspended in buffer. We added 5 µl of diluted FLICA reagent and 2 µl of Hoechst 33342 to 93 µl of cell suspension and mixed by pipetting. The cells were incubated for 60 min at 37°C. After incubation, the cells were washed twice in 400 µl of apoptosis wash buffer and centrifuged at 300 × g. After the last wash, we re-suspended the cells in 100 µl of apoptosis wash buffer supplemented with 10 µg/ml PI. Analysis was performed using the BD FACSCanto II flow cytometer, and the results were analysed with FACSDiva software (both from BD Biosciences Systems, San Jose, CA).
On the technique in general: Flow cytometry measures light scatter and fluorescence of single cells or particles in a stream.

In assay [6] the test system is caspase-8 in MCF-7 breast cancer cells. In words: FLICA caspase-8 activity, flow cytometry, MCF-7. The settings on record: MCF-7, 20 μM, 24 h. On the procedure:
as §4, with “Caspase-8 activity” for “Caspase-3 activity”, “Caspase 8” for “Caspase 3”, “cultured MCF-7 and” for “cultured”

Assay [7] concerns caspase-8 in MDA-MB-231 breast cancer cells. Put plainly: FLICA caspase-8 activity, flow cytometry, MDA-MB-231. To be noted: MDA-MB-231, 20 μM, 24 h. How it is done: as §4, with “Caspase-8 activity” for “Caspase-3 activity”, “Caspase 8” for “Caspase 3”, “cultured MCF-7 and” for “cultured”
Assay [8] concerns caspase-9 in MCF-7 breast cancer cells. In words: FLICA caspase-9 activity, flow cytometry, MCF-7. The settings on record: MCF-7, 20 μM, 24 h. How it is done: as §4, with “Caspase-9 activity” for “Caspase-3 activity”, “Caspase 9” for “Caspase 3”, “cultured MCF-7 and” for “cultured”, “re-suspended” for “re-suspended the”

For the compound `N.N.[Cl][Pt][Cl]` [cisplatin, reference compound], the half-maximal inhibitory concentration (IC50) is greater than 50 µM in assay [1] (MCF-7, 24 h incubation, 5-50 μM, read-out: IC50 (cell viability, MTT)); greater than 50 µM in assay [1] (MCF-7, 48 h incubation, 5-50 μM, read-out: IC50 (cell viability, MTT)); 93 ± 2 µM in assay [1] (read-out: IC50 (additional test for cisplatin), MCF-7, 24 h, additional test in concentrations allowing to determine IC50); 78 ± 1 µM in assay [1] (read-out: IC50 (additional test for cisplatin), MCF-7, 48 h, additional test in concentrations allowing to determine IC50); greater than 50 µM in assay [2] (MDA-MB-231, 24 h incubation, 5-50 μM, read-out: IC50 (cell viability, MTT)); greater than 50 µM in assay [2] (MDA-MB-231, 48 h incubation, 5-50 μM, read-out: IC50 (cell viability, MTT)). In addition, the 50% inhibitory concentration (IC50) in assay [2] (read-out: IC50 (additional test for cisplatin), MDA-MB-231, 24 h, additional test in concentrations allowing to determine IC50) turned out to be 82 ± 2 µM; in assay [2] (read-out: IC50 (additional test for cisplatin), MDA-MB-231, 48 h, additional test in concentrations allowing to determine IC50), 72 ± 1 µM. For the same compound, the entries for the “percent of TUNEL positive cells” value in assay [3] and in assay [4] were 10.9% and 8.9%, respectively. The “percent of cells with active caspase-3” value in assay [5] was determined as 6.4%. The “percent of cells with active caspase-8” value in assay [6] was found to be 7.1%; in assay [7], 9.7%. Moreover, in assay [8], the “percent of cells with active caspase-9” value was 8.2%.
